Laboratory results taken from patent US4086239A, “Thiazole bis-phosphates and phosphonates, intermediates, and insecticidal compositions and methods” (priority 1977, dated 1978).

Assays:
Format in all cases: in vivo
[1] = tested on: Two-Spotted Mite [Tetranychus urticae (Koch)]; test: Two-spotted mite plant dip test; conditions: tested at primary screening level 0.05% only, < means more than 50% kill, > less than 50% kill, 7 days
Protocol: J. Two-Spotted Mite [Tetranychus urticae (Koch)]
A pinto bean plant (Phaseolus sp.), approximately 10 cm tall is transplanted into sandy loam soil in a 3-inch clay pot and infested with two-spotted mites of mixed ages and sexes. Twenty-four hours later the infested plants are inverted and dipped for 2-3 seconds in a 50-50 acetone-water solution of the test compound. The treated plant is held in a greenhouse for 7 days. Mortality is then determined for both the adult mites and the nynmphs hatching from eggs which were on the plants at the time of treatment. The primary screening level for this test is 0.05% by weight of the test compound in the acetone-water solution.
(§1) For a particular insect, each compound was initially tested at the primary screening level. For the two-spotted mite, the testing stopped at this point. Those compounds showing less than 50% kill are represented in the table by the primary screening level preceded by a "greater than" sign. For those showing more than 50% kill, a "less than" sign is used. For all other insects those compounds showing greater than 50% kill at the primary screening level were then tested at successively lower levels, until the level was found at which approximately 50% kill was achieved. This level is listed as the LD50 (50% lethal dose) value in Table III. For those compounds showing approximately 50% kill at the primary screening level, the primary screening level itself is listed as the LD50.

[2] = tested on: Black Bean Aphid [Aphis fabae (Scop.)]; test: Direct spray assay on black bean aphid; conditions: % by weight in acetone-water, mortality after 3 days
Protocol: D. Direct Spray Assay on Black Bean Aphid [Aphis fabae (Scop.)]
A nasturtium plant (Tropaeolum sp.), approximately 5 cm tall, is transplanted into sandy loam soil in a 3-inch clay pot and infested with 25-50 black bean aphids of mixed ages. Twenty-four hours later the plant is sprayed, to the point of runoff, with a 50-50 acetone-water solution of the test chemical. The treated plant is held in the greenhouse and mortality is recorded after 3 days. The primary screening level for this test is 0.05% by weight of the test compound in the acetone-water solution.
as §1
(§2) In cases where this level was found, the level is reported as the LD50. When the level of 50% kill was not found, the number listed is the highest concentration tested, whether primary screen or higher, preceded by a "greater than" sign to indicate that a higher level than reported must be used to achieve 50% kill.

[3] = tested on: Tobacco Budworm [Heliotis virescens (F.)]; test: Tobacco budworm leaf dip test; conditions: % by weight in solution, larvae, 48 hours plus 5 days if survivors
Protocol: (§3) A test solution is prepared by dissolving the test compound in a 50-50 acetone-water solution. A section of a curly dock (Rumex crispus) leaf, aproximately 2.5 centimeters wide and 4 centimeters long, is immersed in the test solution for 2-3 seconds, then placed on a wire screen to dry. The dried leaf is placed in a petri dish containing a moistened piece of filter paper, and infested with 5 second-instar salt-marsh caterpillar larvae. Mortality of the larvae is recorded 48 hours later. If surviving larvae are still present, a piece of synthetic media is added to the dish and the larvae are observed for an additional 5 days in order to detect delayed effects of the test compound. The primary screening level for this test is 0.05% by weight of the test compound in the solution.
I. Tobacco Budworm [Heliotis virescens (F.)]
Larvae of the tobacco budworm are used in this test in a procedure identical to that used for salt-marsh caterpillar larvae, except that a Romaine lettace (Latua sativa) leaf section of approximately the same size as the curly dock leaf section is used in place of the latter. The primary screening level for this test is 0.1% by weight of the test compound in the solution.
as §1
In cases where this level was found, the level is reported as the LD50. […]

[4] = tested on: Lygus bug [Lygus hesperus (Knight)]; test: Lygus bug spray insecticide evaluation; conditions: % by weight in acetone-water spray; adults; mortality after 48 hours
Protocol: C. Lygus bus [Lygus hesperus (Knight)]
The test compound is dissolved in a 50-50 acetone-water solution. Two cubic centimeters of the solution are sprayed through a DeVilbiss-type EGA hand spray gun into a circular cardboard cage covered on the bottom with cellophane and the top with tulle netting, containing one string bean pod and 10 adult lygus bugs. Percent mortality is recorded after 48 hours. The primary screening level for this test is 0.5% by weight of the test compound in the acetone-water solution.
as §1, §2

[5] = tested on: Southern House Mosquito [Culex pipiens quinquefasciatus (Say)]; test: Southern house mosquito larvae test; conditions: ppm by weight in aqueous solution, third-instar larvae, mortality after 48 hours
Protocol: K. Southern House Mosquito [Culex pipiens quinquefasciatus (Say)]
Insecticidal activity is determined using third-instar larvae of the mosquito (Culex pipiens quinquefasciatus). Ten larvae are placed in a 6-ounce, number 67 Dixie wax paper cup containing 100 milliliters of an aqueous solution of the test chemical. The treated larvae are stored at 70° F, and 48 hours later the mortality is recorded. The primary screening level for this test is 1 ppm by weight of the test compound in the solution.
as §1, §2

[6] = tested on: Salt-marsh Caterpillar [Estigmene acrea (Druryl)]; test: Salt-marsh caterpillar leaf dip test; conditions: % by weight in solution, larvae, 48 hours plus 5 days if survivors
Protocol: G. Salt-marsh Caterpillar [Estigmene acrea (Druryl)]
as §3, §1, §2

[7] = tested on: Cabbage Looper [Trichoplusia ni (Hubner)]; test: Cabbage looper leaf dip test; conditions: % by weight in solution, larvae, 48 hours plus 5 days if survivors
Protocol: as §3
H. Cabbage Looper [Trichoplusia ni (Hubner)]
The procedure for cabbage looper larvae is the same as that used for salt-marsh caterpillar larvae, except that a cotyledon of hyzini squash (Calabacita abobrinha) of approximately the same size as the curly dock leaf section is used in place of the latter. The primary screening level for this test is 0.1% by weight of the test compound in the solution.
as §1, §2

[8] = tested on: Black Bean Aphid [Aphis fabae (Scop.)]; test: Systemic assay on black bean aphid; conditions: ppm by weight in soil, mortality after seven days
Protocol: F. Systemic Assay on Black Bean Aphid [Aphis fabae (Scop.)]
The test chemical is diluted in acetone and an aliquot is thoroughly mixed into 500 grams of dry, sandy loam soil. The treated soil is placed in a pint ice cream carton and a nasturtium plant (Tropaeolum sp.) approximately 5 cm tall is transplanted into the carton. The plant is then infested with approximately 25 black bean aphids of mixed ages and placed in the greenhouse. Seven days later mortality is recorded. The primary screening level for this test is 10 ppm by weight of the test compound in the soil.
as §1, §2

[9] = tested on: Housefly [Musca domestica (L.)]; test: Housefly insecticide evaluation; conditions: per 25 female houseflies; mortality after 48 hours
Protocol: A. Housefly [Musca domestica (L.) ]
The test compound is diluted in acetone and an aliquot is pipetted onto the bottom of a 55 × 15 mm aluminum dish. To insure even spreading on the bottom of the dish, 1 ml of acetone containing 0.02% peanut oil is added. After all the solvent has evaporated, the dish is placed in a circular cardboard cage containing 25 1-day-old female houseflies. The cage is covered on the bottom with cellophane and the top with tulle netting, and contains a sugar-water saturated cotton plug for maintenance of the flies. Mortality is recorded after 48 hours. The primary screening level for this test is 100 micrograms of the test compound per 25 female houseflies.
as §1, §2

[10] = tested on: German Cockroach [Blatella germanica (Linne)]; test: German cockroach spray insecticide evaluation; conditions: % by weight in acetone-water spray; nymphs; mortality after 7 days
Protocol: B. German Cockroach [Blatella germanica (Linne)]
The test compound is diluted in a 50-50 acetone-water solution. Two milliliters of the solution are sprayed through a DeVilbiss type EGA hand spray gun into a circular cardboard cage contaning 10 1-month-old German Cockroach nymphs. The test cage is covered on the bottom with cellophane and the top with tulle netting. Percent mortality is recorded after 7 days. The primary screening level for this test is 0.1% by weight of the test compound in the acetone-water solution.
as §1, §2

[11] = tested on: Green Peach Aphid [Myzus persicae (Sulzer)]; test: Direct spray assay on green peach aphid; conditions: % by weight in acetone-water, mortality after 3 days
Protocol: E. Direct Spray Assay on Green Peach Aphid [Myzus persicae (Sulzer)]
A radish plant (Rhaphanus sativus), approximately 2 cm tall, is transplanted into sandy loam soil in a 3-inch clay pot and infested with 25-50 green peach aphids of mixed ages. Twenty-four hours later the plant is sprayed, to the point of runoff, with a 50-50 acetone-water solution of the test compound. The treated plant is held in a greenhouse and mortality is recorded after 3 days. The primary screening level for this test is 0.05% by weight of the test compound in the acetone-water solution.
as §1, §2

SMILES | Approximate LD50, 2SM (two-spotted mite) (2) eggs [1] | Approximate LD50, 2SM (two-spotted mite) (1) post-embryonic [1] | Approximate LD50, BBA (black bean aphid) [2] | Approximate LD50, TBW (tobacco budworm) [3] | Approximate LD50, LB (Lygus bug) [4] | Approximate LD50, MOS (Southern house mosquito) [5] | Approximate LD50, SMC (salt-marsh caterpillar) [6] | Approximate LD50, CL (cabbage looper) [7] | Approximate LD50, BAS (bean aphid systemic) [8] [ppm] | Approximate LD50, HF (housefly) [9] [µg] | Approximate LD50, GR (German cockroach) [10] | Approximate LD50, GPA (green peach aphid) [11] | LC50 ([5]; read-out: Approximate LD50, MOS (Southern house mosquito)) [µg/mL]
CCOP(=S)(OCC)SCC(=O)Nc1csc(NC(=O)CSP(=S)(OCC)OCC)n1 [Compound 1] | < .05% | < .05% | .05% | > .1% | > .05% | .8 ppm | > .05% | > .1% | > 10 | > 100 | > .1% |  | 
COP(=S)(OC)SCC(=O)Nc1csc(NC(=O)CSP(=S)(OC)OC)n1 [Compound 2, 2,4-Bis(O,O -dimethylphosphorodithioylacetamide)thiazole] | > .05% | < .05% | .002% | > .1% | > .05% |  | > .05% | > .1% | > 10 | > 100 | > .1% | .03% | > 1
CCOP(=O)(OCC)SCC(=O)Nc1csc(NC(=O)CSP(=O)(OCC)OCC)n1 [Compound 8] | < .05% | < .05% | .001% | > .1% | > .05% | > 1.0 ppm | > .05% | > .1% | > 10 | > 100 | > .1% | .03% | 
COP(=S)(OC)SCC(=O)Nc1nc(NC(=O)CSP(=S)(OC)OC)c(-c2ccccc2)s1 [Compound 9] | < .05% | > .05% | .2% |  |  | > 1.0 ppm | > .05% | > .5% |  | > 100 |  | .15% | 
